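Compound exposure: 48 hours, 5 concentrations, 96-well plates. At the GI50, growth is halved. TGI: concentration producing complete growth inhibition.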
What was measured:
Assay in all cases: NCI tumour cell line growth inhibition, 48 h
A549 NSCLC = test system: A549 NSCLC
EKVX NSCLC = test system: EKVX NSCLC
SNB-75 CNS = test system: SNB-75 CNS
OVCAR-8 ovarian = test system: OVCAR-8 ovarian
UACC-62 melanoma = test system: UACC-62 melanoma
KM12 colon = test system: KM12 colon
SK-MEL-28 melanoma = test system: SK-MEL-28 melanoma
NCI-H23 lung = test system: NCI-H23 lung
A498 renal = test system: A498 renal
SF-539 CNS = test system: SF-539 CNS
SNB-19 CNS = test system: SNB-19 CNS
MDA-MB-231 breast = test system: MDA-MB-231 breast
CAKI-1 renal = test system: CAKI-1 renal
SN12C renal = test system: SN12C renal
NCI-H522 lung = test system: NCI-H522 lung
HCC-2998 colon = test system: HCC-2998 colon
MOLT-4 leukemia = test system: MOLT-4 leukemia
SK-MEL-5 melanoma = test system: SK-MEL-5 melanoma
HL-60(TB) leukemia = test system: HL-60(TB) leukemia
RPMI-8226 leukemia = test system: RPMI-8226 leukemia
U251 CNS = test system: U251 CNS
HOP-92 NSCLC = test system: HOP-92 NSCLC
HCT-116 colon = test system: HCT-116 colon
BT-549 breast = test system: BT-549 breast
SW-620 colon = test system: SW-620 colon
ACHN renal = test system: ACHN renal
OVCAR-3 ovarian = test system: OVCAR-3 ovarian
SK-MEL-2 melanoma = test system: SK-MEL-2 melanoma
UO-31 renal = test system: UO-31 renal
SK-OV-3 ovarian = test system: SK-OV-3 ovarian
HCT-15 colon = test system: HCT-15 colon
SR leukemia = test system: SR leukemia
NCI-H226 lung = test system: NCI-H226 lung
SF-268 CNS = test system: SF-268 CNS
NCI-H460 lung = test system: NCI-H460 lung
HOP-62 NSCLC = test system: HOP-62 NSCLC
IGROV1 ovarian = test system: IGROV1 ovarian
MALME-3M melanoma = test system: MALME-3M melanoma
786-0 renal = test system: 786-0 renal
RXF 393 renal = test system: RXF 393 renal
LOX IMVI melanoma = test system: LOX IMVI melanoma
COLO 205 colon = test system: COLO 205 colon
CCRF-CEM leukemia = test system: CCRF-CEM leukemia
HT29 colon = test system: HT29 colon
OVCAR-4 ovarian = test system: OVCAR-4 ovarian
HS 578T breast = test system: HS 578T breast
TK-10 renal = test system: TK-10 renal
OVCAR-5 ovarian = test system: OVCAR-5 ovarian
MDA-MB-435 = test system: MDA-MB-435
T-47D breast = test system: T-47D breast
NCI/ADR-RES ovarian = test system: NCI/ADR-RES ovarian
PC-3 prostate = test system: PC-3 prostate
SF-295 CNS = test system: SF-295 CNS
K-562 leukemia = test system: K-562 leukemia
MCF7 breast = test system: MCF7 breast
UACC-257 melanoma = test system: UACC-257 melanoma
DU-145 prostate = test system: DU-145 prostate
M14 melanoma = test system: M14 melanoma

C[C@H]1C[C@@H](n2c(Nc3ccc(OC(F)(F)F)cc3)nc3cc(CCC(=O)O)ccc32)CC(C)(C)C1
GI50 (A549 NSCLC): 11.1 µM | TGI (A549 NSCLC): 30.2 µM | GI50 (EKVX NSCLC): 10.5 µM | TGI (EKVX NSCLC): 32.2 µM | GI50 (SNB-75 CNS): 13.8 µM | TGI (SNB-75 CNS): 28 µM | GI50 (OVCAR-8 ovarian): 13.2 µM | TGI (OVCAR-8 ovarian): 35.1 µM | GI50 (UACC-62 melanoma): 4.91 µM | TGI (UACC-62 melanoma): 17.7 µM | GI50 (KM12 colon): 10.5 µM | TGI (KM12 colon): 24 µM | GI50 (SK-MEL-28 melanoma): 8.26 µM | TGI (SK-MEL-28 melanoma): 22.5 µM | GI50 (NCI-H23 lung): 12.9 µM | TGI (NCI-H23 lung): 30.5 µM | GI50 (A498 renal): 11.1 µM | TGI (A498 renal): 23.2 µM | GI50 (SF-539 CNS): 13.1 µM | TGI (SF-539 CNS): 37.7 µM | GI50 (SNB-19 CNS): 12.1 µM | TGI (SNB-19 CNS): 31.2 µM | GI50 (MDA-MB-231 breast): 16 µM | TGI (MDA-MB-231 breast): 32.9 µM | GI50 (CAKI-1 renal): 15.4 µM | TGI (CAKI-1 renal): 28.8 µM | GI50 (SN12C renal): 9.95 µM | TGI (SN12C renal): 28 µM | GI50 (NCI-H522 lung): 14 µM | TGI (NCI-H522 lung): 33.2 µM | GI50 (HCC-2998 colon): 6.68 µM | TGI (HCC-2998 colon): 20.8 µM | GI50 (MOLT-4 leukemia): 9.37 µM | TGI (MOLT-4 leukemia): 32.6 µM | GI50 (SK-MEL-5 melanoma): 5.38 µM | TGI (SK-MEL-5 melanoma): 17.9 µM | GI50 (HL-60(TB) leukemia): 10.3 µM | TGI (HL-60(TB) leukemia): 29.1 µM | GI50 (RPMI-8226 leukemia): 10.1 µM | TGI (RPMI-8226 leukemia): 50.9 µM | GI50 (U251 CNS): 11.2 µM | TGI (U251 CNS): 28.1 µM | GI50 (HOP-92 NSCLC): 16.4 µM | TGI (HOP-92 NSCLC): 32.1 µM | GI50 (HCT-116 colon): 5.04 µM | TGI (HCT-116 colon): 18.5 µM | GI50 (BT-549 breast): 3.13 µM | TGI (BT-549 breast): 12 µM | GI50 (SW-620 colon): 15.3 µM | TGI (SW-620 colon): 32.5 µM | GI50 (ACHN renal): 13.1 µM | TGI (ACHN renal): 27.1 µM | GI50 (OVCAR-3 ovarian): 13 µM | TGI (OVCAR-3 ovarian): 25.8 µM | GI50 (SK-MEL-2 melanoma): 15 µM | TGI (SK-MEL-2 melanoma): 34.6 µM | GI50 (UO-31 renal): 9.38 µM | TGI (UO-31 renal): 21.5 µM | GI50 (SK-OV-3 ovarian): 20 µM | TGI (SK-OV-3 ovarian): 35.4 µM | GI50 (HCT-15 colon): 5.69 µM | TGI (HCT-15 colon): 18.9 µM | GI50 (SR leukemia): 6.23 µM | TGI (SR leukemia): 36.6 µM | GI50 (NCI-H226 lung): 17.8 µM | TGI (NCI-H226 lung): 42.4 µM | GI50 (SF-268 CNS): 12.1 µM | TGI (SF-268 CNS): 27.7 µM | GI50 (NCI-H460 lung): 9.74 µM | TGI (NCI-H460 lung): 24.7 µM | GI50 (HOP-62 NSCLC): 20.6 µM | TGI (HOP-62 NSCLC): 39.4 µM | GI50 (IGROV1 ovarian): 12.6 µM | TGI (IGROV1 ovarian): 28.7 µM | GI50 (MALME-3M melanoma): 16.2 µM | TGI (MALME-3M melanoma): 37.3 µM | GI50 (786-0 renal): 5.5 µM | TGI (786-0 renal): 19.7 µM | GI50 (RXF 393 renal): 11.3 µM | TGI (RXF 393 renal): 25.2 µM | GI50 (LOX IMVI melanoma): 11.8 µM | TGI (LOX IMVI melanoma): 25.9 µM | GI50 (COLO 205 colon): 18.8 µM | TGI (COLO 205 colon): 39.4 µM | GI50 (CCRF-CEM leukemia): 16.2 µM | TGI (CCRF-CEM leukemia): 44.5 µM | GI50 (HT29 colon): 14.6 µM | TGI (HT29 colon): 30.9 µM | GI50 (OVCAR-4 ovarian): 11.2 µM | TGI (OVCAR-4 ovarian): 29.1 µM | GI50 (HS 578T breast): 10.5 µM | TGI (HS 578T breast): 31.1 µM | GI50 (TK-10 renal): 20.6 µM | TGI (TK-10 renal): 46.9 µM | GI50 (OVCAR-5 ovarian): 17 µM | TGI (OVCAR-5 ovarian): 31.5 µM | GI50 (MDA-MB-435): 10.4 µM | TGI (MDA-MB-435): 22.9 µM | GI50 (T-47D breast): 14.3 µM | TGI (T-47D breast): 44.5 µM | GI50 (NCI/ADR-RES ovarian): 11.7 µM | TGI (NCI/ADR-RES ovarian): 27.5 µM | GI50 (PC-3 prostate): 11.9 µM | TGI (PC-3 prostate): 27.9 µM | GI50 (SF-295 CNS): 4.85 µM | TGI (SF-295 CNS): 19.1 µM | GI50 (K-562 leukemia): 11.9 µM | TGI (K-562 leukemia): 37.7 µM | GI50 (MCF7 breast): 6.29 µM | TGI (MCF7 breast): 22.6 µM | GI50 (UACC-257 melanoma): 16.6 µM | TGI (UACC-257 melanoma): 39.4 µM | GI50 (DU-145 prostate): 13.8 µM | TGI (DU-145 prostate): 27.2 µM | GI50 (M14 melanoma): 7.09 µM | TGI (M14 melanoma): 25 µM

Source: PubChem BioAssay (NCI)
